Test in all cases: NCI anticancer screen, dose series, 48 h
Assay [1] relates to K562.
Assay [2] concerns HT-29.
Assay [3] concerns TK-10.
Assay [4] deals with A549.
The test system of assay [5] is IGROV-1.
For assay [6], the system named is 786-0.
Assay [7] has as its system SF-539.
Assay [8] deals with SK-OV-3.
Assay [9] relates to SN12C.
The test system of assay [10] is SK-MEL-2.
Assay [11] deals with CCRF-CEM.
For assay [12], the system named is RPMI-8226.
The test system of assay [13] is UO-31.
In assay [14] the test system is MOLT-4.
Assay [15] concerns NCI-H460.
Assay [16] relates to LOX IMVI.
Assay [17] relates to CAKI-1.

Molecules are shown by their SMILES.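 Five compound concentrations were applied to cells in 96-well plates for 48 hours; endpoints were derived by simple linear interpolation of the resulting dose-response curve. Abbreviation: GI50, concentration required for 50% inhibition of growth.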 Activity calls are given as the source filed them. No stated cut-off is given here; in the data, active = GI50 up to about 1.1 µM and inactive = higher.

As to `CN/C=C(/c1ccc(OC)cc1)C(O)c1ccc(OC)c(OC)c1` (centres undefined), the GI50 in assay [1], in assay [2], in assay [3], in assay [4], in assay [5] and in assay [6] was > 100 µM (inactive) throughout. Moreover, the GI50 in assay [7], in assay [8], in assay [9], in [10], in assay [11] and in assay [12] was > 100 µM (inactive) throughout. Also, the GI50 in assay [13], in [14], in assay [15] and in assay [16] was > 100 µM (inactive) in each case.
For the molecule `CCNC(=O)c1ccc(C)c(/N=N/N(C)C)c1`, the GI50 in assay [17], in [2], in [3], in [4], in assay [5] and in assay [6] was > 100 µM (inactive) each time. Also, the GI50 in [7], in assay [9], in assay [10], in assay [13], in [15] and in assay [16] was > 100 µM (inactive) throughout.
With `CN(C)c1ccc2c(c1)C(=O)N(OS(=O)(=O)c1ccc([N+](=O)[O-])cc1)C2=O`, the GI50 is 22.4 µM (inactive) in assay [17]; 31.6 µM (inactive) in assay [1]; 21.7 µM (inactive) in assay [2]; 59 µM (inactive) in assay [3]; 39.2 µM (inactive) in assay [4]; 19.7 µM (inactive) in assay [5]. Further, the GI50 was 19.3 µM (inactive) in assay [6]; 17.6 µM (inactive) in assay [7]; > 100 µM (inactive) in [8]; 22.5 µM (inactive) in [9]; 29.2 µM (inactive) in [10]; 18.7 µM (inactive) in [11]. For the same molecule, the GI50 was 23.1 µM (inactive) in [13] and 49.3 µM (inactive) in assay [15].
With `CC(C)(C)C1CC[C@H]2c3c([nH]c4ccccc34)[C@H]3C(=O)N(c4ccc(F)cc4)C(=O)[C@H]3[C@H]2C1` (some centres undefined), the GI50 in [17] is 17.9 µM (inactive); in [1] it was 20.7 µM (inactive); in [3] it was 16.3 µM (inactive); in [4], 12 µM (inactive); in [5], 17 µM (inactive); in [6], 11.3 µM (inactive). Besides, the GI50 in assay [7] is 18.9 µM (inactive); in assay [8], 17.8 µM (inactive); in assay [9] it was 11.1 µM (inactive); in [10], 15.8 µM (inactive); in assay [11] it was 16.7 µM (inactive); in assay [13] it was 15.8 µM (inactive). Besides, the GI50 in assay [14] is 13.2 µM (inactive); in assay [15], 13.6 µM (inactive); in [16], 20.3 µM (inactive).
`COc1ccc2c3c1O[C@]1(C)C34CCN(C)C(C2)C42C=C[C@@]1(OC)c1c(O)ccc(O)c12`: the GI50 was > 100 µM (inactive) in assay [1]; > 100 µM (inactive) in assay [2]; > 100 µM (inactive) in assay [3]; > 100 µM (inactive) in assay [4]; > 100 µM (inactive) in assay [5]; 95.7 µM (inactive) in assay [6]. The GI50 in assay [7], in [8], in assay [10], in assay [11], in assay [12] and in assay [13] was > 100 µM (inactive) in each case. Further, the GI50 in assay [14], in assay [15] and in assay [16] was > 100 µM (inactive) throughout.
Consider `CC1(CO)OC(n2cc(C(=O)NC(=O)OCc3ccccc3)c(=O)[nH]c2=O)CC1O` (centres undefined), for which the GI50 in assay [17], in assay [1], in assay [2], in assay [3], in [4] and in assay [5] was > 100 µM (inactive) each time. The GI50 in assay [6], in assay [7], in [8], in assay [9], in [11] and in [12] was > 100 µM (inactive) throughout. Also, the GI50 in assay [13], in assay [14], in [15] and in assay [16] was > 100 µM (inactive) throughout.
`COc1cc(Nc2cnc3cc(N)ccc3n2)cc(OC)c1OC`: the GI50 in assay [17] was 83.4 µM (inactive); in [1], 42.3 µM (inactive); in [2], 62.5 µM (inactive); in assay [3] it was > 100 µM (inactive); in assay [4], > 100 µM (inactive); in [5], > 100 µM (inactive). For the same molecule, the GI50 is > 100 µM (inactive) in assay [6]; > 100 µM (inactive) in assay [7]; 69.7 µM (inactive) in [8]; 94.6 µM (inactive) in assay [9]; > 100 µM (inactive) in assay [10]; 40.3 µM (inactive) in assay [11]. In addition, the GI50 in assay [13] is 61.2 µM (inactive); in assay [14], 52.2 µM (inactive); in [15], 34.1 µM (inactive); in assay [16], 65.5 µM (inactive).
Turning to `CC1=C(C(=O)Nc2ccccc2C)C(c2ccc(N(C)C)cc2)C(C(=O)Nc2ccccc2C)=C(C)N1`, the GI50 in assay [1] was 26.2 µM (inactive); in assay [2] it was > 100 µM (inactive); in assay [3], > 100 µM (inactive); in [4], 94 µM (inactive); in assay [5] it was > 100 µM (inactive); in assay [6], 72.3 µM (inactive). Moreover, the GI50 in [7] is > 100 µM (inactive); in assay [8], > 100 µM (inactive); in assay [9], 83.6 µM (inactive); in assay [10], 36.2 µM (inactive); in [11], 31.8 µM (inactive); in assay [12], 17.1 µM (inactive). Also, the GI50 in assay [13] was 55.2 µM (inactive); in assay [14], 26.8 µM (inactive); in assay [15], 63.8 µM (inactive); in assay [16], 56.8 µM (inactive).
Take `O=C(c1ccccc1)C(C(=O)c1ccccc1)C1(O)C(=O)c2ccccc2C1=O`: the GI50 in assay [1] was 15.8 µM (inactive); in assay [2] it was 39.7 µM (inactive); in [3], 3.01 µM (inactive); in assay [4] it was 29.3 µM (inactive); in [5], 53.3 µM (inactive); in assay [6] it was 26.9 µM (inactive). For the same molecule, the GI50 in [7] was 32.1 µM (inactive); in assay [8], 48.8 µM (inactive); in assay [9], 27.8 µM (inactive); in [10] it was 6.17 µM (inactive); in assay [11] it was 20.4 µM (inactive); in assay [12], 31.1 µM (inactive). For the same molecule, the results for the GI50 in assay [13], in assay [14] and in [16] were 36.1 µM (inactive), 19.8 µM (inactive) and 32.4 µM (inactive), respectively.
For the molecule `Cn1c(NC(=O)NC23CC4CC(CC(C4)C2)C3)nc2ccccc21`, the GI50 was 48.6 µM (inactive) in assay [17]; > 100 µM (inactive) in assay [1]; > 100 µM (inactive) in assay [2]; 39.5 µM (inactive) in assay [3]; > 100 µM (inactive) in assay [4]; > 100 µM (inactive) in [5]. Besides, the GI50 was 17.1 µM (inactive) in assay [6]; 81.1 µM (inactive) in assay [7]; 17.4 µM (inactive) in assay [8]; 68.5 µM (inactive) in [9]; 71.3 µM (inactive) in assay [10]; > 100 µM (inactive) in assay [12]. The GI50 in assay [13] is > 100 µM (inactive); in assay [14], > 100 µM (inactive); in assay [15] it was 38.4 µM (inactive); in assay [16] it was > 100 µM (inactive).
`COc1ccccc1NC(=O)C1=C(C)NC(C)=C(C(=O)Nc2ccccc2OC)C1c1ccccc1[N+](=O)[O-]`: the GI50 in assay [1] is 20.6 µM (inactive); in assay [2], 18.7 µM (inactive); in assay [3], 22.5 µM (inactive); in assay [4], > 100 µM (inactive); in assay [5] it was 19.7 µM (inactive); in assay [6], 17.4 µM (inactive). The GI50 in [7] is 19.6 µM (inactive); in assay [8], 26.9 µM (inactive); in [9], 16.6 µM (inactive); in assay [10] it was 11.4 µM (inactive); in [11], 18.9 µM (inactive); in assay [12] it was 19.1 µM (inactive). Moreover, the GI50 is 19.4 µM (inactive) in assay [13], 14.3 µM (inactive) in assay [14], 16.1 µM (inactive) in [15] and 15.5 µM (inactive) in [16].
As to `COc1ccc(NCc2cc(OC)c(OC)c(OC)c2)cc1`, the GI50 in assay [2] is 0.176 µM (active); in [4] it was 0.578 µM (active); in [5], 0.631 µM (active); in assay [6], 0.647 µM (active); in assay [7], 0.34 µM (active); in assay [8], 0.504 µM (active). Further, the GI50 was 0.53 µM (active) in assay [9]; 0.245 µM (active) in assay [10]; 0.459 µM (active) in assay [12]; 0.451 µM (active) in [14]; 0.359 µM (active) in assay [15]; 0.519 µM (active) in assay [16].
Regarding `O=[N+]([O-])c1ccc(C2=NN(c3ccccc3)C[N+](c3ccc(Br)cc3)=N2)cc1`, the GI50 in assay [17] is > 100 µM (inactive); in assay [1], 70.3 µM (inactive); in [2] it was > 100 µM (inactive); in assay [3], > 100 µM (inactive); in assay [4], 82 µM (inactive); in [5], > 100 µM (inactive). In addition, the GI50 was > 100 µM (inactive) in [6]; 46 µM (inactive) in assay [7]; > 100 µM (inactive) in assay [8]; > 100 µM (inactive) in [9]; > 100 µM (inactive) in assay [10]; > 100 µM (inactive) in [12]. For the same molecule, the values for the GI50 in assay [13], in assay [14] and in assay [15] were > 100 µM (inactive), 44.3 µM (inactive) and > 100 µM (inactive), respectively.
